Measurements taken from PubChem BioAssay AID248 (DTP/NCI, 2004).
“And” between values parts separate entries of the source, which are not always exact repeats. Equal values may be shown once. Toxic doses and inconclusive results are not listed.

Test system: L1210 leukemia ip in BDF1 mice, survival T/C
Test: NCI In Vivo Anticancer Drug Screen. Data for tumor model L1210 Leukemia (intraperitoneal) in B6D2F1 (BDF1) mice
Details: endpoint: mean survival time, higher = longer survival
Method in brief: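 Each compound was tested against a transplantable tumor grown in mice. The endpoint was survival, with treated animals benchmarked against vehicle controls as a simple ratio.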

[1] = dose: 100.0 mg/kg/injection, schedule: Q04DX003 (ip), vehicle: Klucel (hydroxypropylcellulose) (HPC)
[2] = dose: 200.0 mg/kg/injection, schedule: Q04DX003 (ip), vehicle: Klucel (hydroxypropylcellulose) (HPC)
[3] = dose: 50.0 mg/kg/injection, schedule: Q01DX001 (ip), vehicle: saline
[4] = dose: 100.0 mg/kg/injection, schedule: Q01DX001 (ip), vehicle: saline
[5] = dose: 200.0 mg/kg/injection, schedule: Q01DX001 (ip), vehicle: saline
[6] = dose: 400.0 mg/kg/injection, schedule: Q01DX001 (ip), vehicle: saline

SMILES: CC1(C)CC(=O)C=C(NC2CCCCC2)C1
- T/C (dose: 50.0 mg/kg/injection, schedule: Q01DX009 (ip), vehicle: saline sonified): 94 % of control
- T/C (dose: 100.0 mg/kg/injection, schedule: Q01DX009 (ip), vehicle: saline sonified): 103 % of control
- T/C [1]: 96 % of control
- T/C (dose: 200.0 mg/kg/injection, schedule: Q01DX009 (ip), vehicle: saline sonified): 92 % of control
- T/C [2]: 98 % of control

SMILES: COc1ccc(N2C(=O)C3C(C2=O)C2c4ccccc4C3C3CCCCN32)cc1 (stereo not drawn)
- T/C (dose: 75.0 mg/kg/injection, schedule: Q01DX001 (ip), vehicle: other): 103 % of control

SMILES: CC(C)(CNC1=NCCO1)NC1=NCCO1
- T/C (dose: 50.0 mg/kg/injection, schedule: Q01DX009 (ip), vehicle: saline): 105 % of control
- T/C (dose: 100.0 mg/kg/injection, schedule: Q01DX009 (ip), vehicle: saline): 107 % of control
- T/C (dose: 200.0 mg/kg/injection, schedule: Q01DX009 (ip), vehicle: saline): 103 % of control

SMILES: [Co+3].[NH-]CC(=O)O.[NH-]CC(=O)O.[NH-]CC(=O)O
- T/C (dose: 200.0 mg/kg/injection, schedule: Q04DX002 (ip), vehicle: saline with Tween-80): 122 % of control
- T/C (dose: 400.0 mg/kg/injection, schedule: Q04DX002 (ip), vehicle: saline with Tween-80): 115 % of control

SMILES: CCC1CN2CCc3cc(OC)c(OC)cc3C2CC1=O (stereo not drawn)
- T/C (dose: 50.0 mg/kg/injection, schedule: Q01DX009 (ip), vehicle: saline with Tween-80): 102 % of control
- T/C (dose: 100.0 mg/kg/injection, schedule: Q01DX009 (ip), vehicle: saline with Tween-80): 103 % of control and 108 % of control
- T/C (dose: 200.0 mg/kg/injection, schedule: Q01DX009 (ip), vehicle: saline with Tween-80): 124 % of control

SMILES: CC(C)(C)C#CC#CC(C)(C)C
- T/C (dose: 10.0 mg/kg/injection, schedule: Q04DX003 (ip), vehicle: saline): 95 % of control
- T/C (dose: 20.0 mg/kg/injection, schedule: Q04DX003 (ip), vehicle: saline): 100 % of control
- T/C (dose: 40.0 mg/kg/injection, schedule: Q04DX003 (ip), vehicle: saline): 92 % of control

SMILES: O=c1c([N+](=O)[O-])c[nH]c2cc(Cl)ccc12
- T/C [3]: 92 % of control
- T/C [4]: 101 % of control
- T/C [5]: 103 % of control
- T/C [6]: 97 % of control

SMILES: Clc1ccc(CSc2ncc(Br)c(Cl)n2)cc1
- T/C (dose: 100.0 mg/kg/injection, schedule: Q01DX Z (ip), vehicle: methylcellulose (MC)): 90 % of control
- T/C (dose: 200.0 mg/kg/injection, schedule: Q01DX Z (ip), vehicle: methylcellulose (MC)): 99 % of control

SMILES: CN(C)c1ccc(N=O)cc1
- T/C (dose: 0.78 mg/kg/injection, schedule: Q04DX002 (ip), vehicle: saline): 89 % of control
- T/C (dose: 1.56 mg/kg/injection, schedule: Q01DX009 (ip), vehicle: saline): 93 % of control
- T/C (dose: 1.56 mg/kg/injection, schedule: Q04DX002 (ip), vehicle: saline): 95 % of control
- T/C (dose: 3.13 mg/kg/injection, schedule: Q01DX009 (ip), vehicle: saline): 93 % of control
- T/C (dose: 3.13 mg/kg/injection, schedule: Q04DX002 (ip), vehicle: saline): 95 % of control
- T/C (dose: 6.25 mg/kg/injection, schedule: Q01DX009 (ip), vehicle: saline): 97 % of control
- T/C (dose: 6.25 mg/kg/injection, schedule: Q04DX002 (ip), vehicle: saline): 100 % of control

SMILES: Clc1ccc(/C=C2\c3ccccc3-c3nc4ccccc4nc32)cc1
- T/C (dose: 75.0 mg/kg/injection, schedule: Q04DX003 (ip), vehicle: saline): 91 % of control
- T/C (dose: 150.0 mg/kg/injection, schedule: Q04DX003 (ip), vehicle: saline): 88 % of control

SMILES: COc1ccc(CC(N)C(=O)OCc2ccccc2)cc1N(CCCl)CCCl (stereo not drawn)
- T/C (dose: 0.08 mg/kg/injection, schedule: Q01DX009 (ip), vehicle: saline): 113 % of control
- T/C (dose: 0.15 mg/kg/injection, schedule: Q01DX009 (ip), vehicle: saline): 118 % of control
- T/C (dose: 0.3 mg/kg/injection, schedule: Q01DX009 (ip), vehicle: saline): 118 % of control
- T/C (dose: 0.75 mg/kg/injection, schedule: Q01DX001 (ip), vehicle: saline): 110 % of control
- T/C (dose: 1.5 mg/kg/injection, schedule: Q01DX001 (ip), vehicle: saline): 104 % of control
- T/C (dose: 6.0 mg/kg/injection, schedule: Q01DX009 (ip), vehicle: saline): 93 % of control
- T/C (dose: 12.5 mg/kg/injection, schedule: Q01DX001 (ip), vehicle: saline): 155 % of control

SMILES: NC(=O)NC(=O)c1ccccn1
- T/C (dose: 75.0 mg/kg/injection, schedule: Q01DX001 (ip), vehicle: saline): 106 % of control
- T/C (dose: 150.0 mg/kg/injection, schedule: Q01DX001 (ip), vehicle: saline): 97 % of control
- T/C (dose: 300.0 mg/kg/injection, schedule: Q01DX001 (ip), vehicle: saline): 100 % of control

SMILES: CC(=O)OC1CCC2(C)C(CCC3C4CCC(C(C)CC(=O)O)C4CCC32)C1 (stereo not drawn)
- T/C (dose: 100.0 mg/kg/injection, schedule: Q04DX003 (sc), vehicle: steriod suspending solution): 106 % of control
- T/C (dose: 200.0 mg/kg/injection, schedule: Q04DX003 (sc), vehicle: steriod suspending solution): 106 % of control
- T/C (dose: 400.0 mg/kg/injection, schedule: Q04DX003 (sc), vehicle: steriod suspending solution): 111 % of control

SMILES: C[N+]1=C(/C=C\c2ccc3cccnc3c2O)C(C)(C)c2cc(F)ccc21
- T/C (dose: 100.0 mg/kg/injection, schedule: Q01DX001 (ip), vehicle: carboxymethylcellulose (CMC)): 93 % of control
- T/C (dose: 200.0 mg/kg/injection, schedule: Q01DX001 (ip), vehicle: carboxymethylcellulose (CMC)): 95 % of control
- T/C (dose: 400.0 mg/kg/injection, schedule: Q01DX001 (ip), vehicle: carboxymethylcellulose (CMC)): 88 % of control

SMILES: C[As](C)(=S)[As](C)(C)=S
- T/C (dose: 12.5 mg/kg/injection, schedule: Q01DX009 (ip), vehicle: Klucel (hydroxypropylcellulose) (HPC)): 97 % of control
- T/C (dose: 12.5 mg/kg/injection, schedule: Q04DX002 (ip), vehicle: Klucel (hydroxypropylcellulose) (HPC)): 107 % of control and 88 % of control
- T/C (dose: 25.0 mg/kg/injection, schedule: Q01DX009 (ip), vehicle: Klucel (hydroxypropylcellulose) (HPC)): 97 % of control
- T/C (dose: 25.0 mg/kg/injection, schedule: Q04DX002 (ip), vehicle: Klucel (hydroxypropylcellulose) (HPC)): 96 % of control and 91 % of control
- T/C (dose: 50.0 mg/kg/injection, schedule: Q01DX009 (ip), vehicle: Klucel (hydroxypropylcellulose) (HPC)): 87 % of control

SMILES: O=[N+]([O-])c1cccc([N+](=O)[O-])c1/C=N/Nc1nnc(N/N=C/c2c([N+](=O)[O-])cccc2[N+](=O)[O-])c2ccccc12
- T/C [3]: 100 % of control
- T/C [4]: 103 % of control
- T/C [5]: 100 % of control
- T/C [6]: 100 % of control

SMILES: CC(=O)OC1OC2COC(C)(C)OCC2C(OC(C)=O)C1OC(C)=O (stereo not drawn)
- T/C (dose: 100.0 mg/kg/injection, schedule: Q01DX001 (ip), vehicle: saline with Tween-80): 96 % of control
- T/C (dose: 200.0 mg/kg/injection, schedule: Q01DX001 (ip), vehicle: saline with Tween-80): 104 % of control

SMILES: CCOC(=O)c1ccc(Oc2ncc([N+](=O)[O-])s2)cc1
- T/C (dose: 1.56 mg/kg/injection, schedule: Q01DX001 (ip), vehicle: saline): 107 % of control
- T/C (dose: 1.56 mg/kg/injection, schedule: Q04DX003 (ip), vehicle: saline): 96 % of control
- T/C (dose: 3.12 mg/kg/injection, schedule: Q01DX001 (ip), vehicle: saline): 110 % of control
- T/C (dose: 3.12 mg/kg/injection, schedule: Q04DX003 (ip), vehicle: saline): 100 % of control
- T/C (dose: 6.25 mg/kg/injection, schedule: Q01DX001 (ip), vehicle: saline): 98 % of control
- T/C (dose: 6.25 mg/kg/injection, schedule: Q04DX003 (ip), vehicle: saline): 96 % of control
- T/C (dose: 9.2 mg/kg/injection, schedule: Q04DX003 (ip), vehicle: saline): 103 % of control
- T/C (dose: 14.0 mg/kg/injection, schedule: Q04DX003 (ip), vehicle: saline): 98 % of control
- T/C (dose: 21.0 mg/kg/injection, schedule: Q04DX003 (ip), vehicle: saline): 96 % of control
- T/C (dose: 29.0 mg/kg/injection, schedule: Q04DX003 (ip), vehicle: saline with Tween-80): 103 % of control
- T/C (dose: 29.0 mg/kg/injection, schedule: Q04DX003 (ip), vehicle: saline): 93 % of control
- T/C (dose: 45.0 mg/kg/injection, schedule: Q04DX003 (ip), vehicle: saline): 102 % of control
- T/C (dose: 65.0 mg/kg/injection, schedule: Q04DX003 (ip), vehicle: saline with Tween-80): 86 % of control

SMILES: O=C(NCc1ccccc1)Nc1ccccc1
- T/C [1]: 96 % of control
- T/C [2]: 100 % of control
- T/C (dose: 400.0 mg/kg/injection, schedule: Q04DX003 (ip), vehicle: Klucel (hydroxypropylcellulose) (HPC)): 96 % of control

SMILES: Clc1ccc(N=C/C=C/c2ccccc2)cc1
- T/C (dose: 25.0 mg/kg/injection, schedule: Q04DX003 (ip), vehicle: other): 95 % of control
- T/C (dose: 50.0 mg/kg/injection, schedule: Q04DX003 (ip), vehicle: other): 108 % of control
- T/C (dose: 100.0 mg/kg/injection, schedule: Q04DX003 (ip), vehicle: other): 100 % of control
